Reference: BindingDB's records for doi:10.1002/cbic.201402673 (University of Groningen, 2015)

Target: T1, Thiamine transporter ThiT (Lactococcus lactis subsp. cremoris (strain MG1363), UniProt A2RI47)
T1 sequence (A2RI47 whole entry): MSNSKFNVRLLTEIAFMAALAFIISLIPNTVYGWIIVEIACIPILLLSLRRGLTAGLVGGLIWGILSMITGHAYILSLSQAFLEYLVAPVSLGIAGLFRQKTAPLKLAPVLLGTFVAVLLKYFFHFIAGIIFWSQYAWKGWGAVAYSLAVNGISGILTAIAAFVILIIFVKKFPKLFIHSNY
Assay: Intrinsic-Fluorescence Titration
Description: Purified ThiT was diluted in buffer E to a concentration of ~50 nM in a final volume of 800 µL. The substrates were added in 1 µL steps. Using an excitation wavelength of 280 nm, emission was measured at 350 nm and 25 °C. After each addition of substrate, 10 s were allowed for equilibration and mixing, and the signals were averaged over 15 s.

SMILES	Kd
Cc1ncc(Cc2csc(CCO)c2C)c(N)n1 [3-Deazathiamine]	4.23 nM
Cc1ncc(Cc2csc(C=O)c2C)c(N)n1 [4-((4-Amino-2-methylpyrimidin-5-yl)methyl)-3-methylthiophene-2-carbaldehyde (9)]	7.44 nM
Cc1ncc(Cc2csc(CO)c2C)c(N)n1 [(4-((4-Amino-2-methylpyrimidin-5-yl)methyl)-3-methylthiophen-2-yl)methanol (7)]	5.21 nM

Second part, the molecule after the results:

Kd	SMILES
266 nM	Cc1ncc(Cc2cccc(CCO)c2)c(N)n1 [2-(3-((4-Amino-2-methylpyrimidin-5-yl)methyl)phenyl)ethanol (8)]
528 nM	Cc1ncc(Cc2cccc(CO)c2)c(N)n1 [(3-((4-Amino-2-methylpyrimidin-5-yl)methyl)phenyl)methanol (6)]
